The source of these data is patent EP4643657A1, “COMPOSITIONS CONTAINING SHORT-CHAIN FATTY ACID, METHODS OF USE, AND METHODS OF MAKING THEREOF” (Velocity Life Sciences, LLC, priority 2024, dated 2025).

Several values for one entry are separate records, joined by “and”; a condition that tells them apart may be missing. Identical values can stand only once. Entries after “also recorded” stand apart in the source; their conditions may differ.

The nature of data set [1]: Visual-analog scales of affect, randomized three-arm crossover trial (Example 5). The data set is classed as in vivo, human. The method, then: Experimental Design: This was a randomized, three-arm, crossover trial in which participants visited the laboratory on four occasions (one screening visit and three testing visits). […] Written informed consent was obtained from all subjects prior to enrollment. The study was retrospectively registered on clinicaltrials.gov (#NCT06700785). This study was conducted at The Center for Applied Health Sciences, a contract research organization located in Northeast Ohio. […] VAS assessed subjective ratings of state of well-being, calm and relaxed, stressed and anxious, mood, motivation to perform tasks, level of alertness, and ability to concentrate and were anchored with "Worst possible", "Lowest possible", "Strongly Disagree", or "Best Possible", "Highest Possible", "Strongly Agree". […] Statistical Analyses: Normality was assessed using Q-Q plot and Shapiro-Wilks test. Severe non-normal measures were normalized using log (In) transformation. Serum butyrate concentrations, subjective ratings of affect, and vitals over time between treatments were analyzed using a mixed effects factorial ANOVA . Tukey post hocs were applied if significant main effects/interactions were observed. […] Effect sizes are reported as Cohen's d (with 0.2 considered a small effect, 0.5 considered a medium effect, and 0.8 considered a large effect). All analyses were conducted in GraphPad Prism v.10.4.0.

A short description of data set [2]: Serum butyrate pharmacokinetics, randomized three-arm crossover trial (Example 5). As to conditions: for Tmax comparison between treatments: Wilcoxon rank test; for AUC0-210 comparison between treatments / Cmax comparison between treatments: paired samples t-test; for Serum Butyrate: 10 healthy men, Mean ± SD.
Data set [3] can be described thus: Exposure of the prepared salt to air at room temperature (hygroscopicity, storage stability). As to conditions: for Hygroscopicity: exposed at room temperature to air. The format is physicochemical. From the text: The L-arginine butyrate prepared using ethanol as the sole solvent was a white to off-white powder.
The L-lysine butyrate prepared using ethanol as the sole solvent was a light, pale yellow to yellow powder. […] Table 1: Attempted preparation of salts of amino acids and amino acid derivatives of butyric acid.

The nature of data set [4]: Nootropic and related properties after oral administration (Example 3). The format is in vivo, human. The method, then:
In another experiment, L-lysine butyrate in a dose range of 500 mg to 5,000 mg was administered as an aqueous solution to six individuals aged between 22 and 55 years, comprising two women and four men. […] The observed effects were dose-dependent, with larger doses of L-lysine butyrate providing greater effects and longer duration, lasting up to four hours.
In another experiment, L-lysine butyrate in a dose of 2 g, and on a separate occasion 5 g, was administered in encapsulated form, to 2 individuals. A further individual was administered L-lysine butyrate in a dose of 2 g in encapsuled form.

The mark [5] stands for this setting: 0 min (prior to ingestion), 100-mm VAS, Mean±SD.
[6] abbreviates: motivation to perform tasks, 0 min (prior to ingestion), 100-mm VAS, Mean±SD.
The mark [7] stands for this setting: seven (7) days at room temperature.
The mark [8] stands for this setting: 500 mg to 5,000 mg as aqueous solution, six individuals.

For the molecule `CCCC(=O)[O-].[Na+]` [Sodium Butyrate, Sodium butyrate], in data set [1] (setting [5]), the Alertness is reported as 6.4 ± 1.2; the “Calm and Relaxed” value stood at 7.6 ± 0.9 cm; the Concentration is reported as 6.4 ± 1.2 cm; the Mood turned out to be 7.1 ± 1.2 cm. For the same molecule, in data set [1] (setting [5]), the “Stressed and Anxious” value was found to be 2.4 ± 1.4 cm; the Well-being was determined as 7.0 ± 1.2 cm. In data set [1] (in vivo, po), the Alertness is 6.5 ± 1.6 and 6.8 ± 1.3 and 6.7 ± 1.6 and 7.1 ± 1.8; the “Alertness AUC” value is recorded as 1411 ± 293; the “Calm and Relaxed” value was 7.3 ± 1.2 cm and 7.6 ± 1.0 cm and 7.9 ± 1.1^¥ cm and 7.9 ± 1.2 cm; the “Calm and Relaxed AUC” value is reported as 1608 ± 216. For the same molecule, in data set [1] (in vivo, po), the Concentration was 6.4 ± 1.7 cm and 6.6 ± 1.5 cm and 6.5 ± 1.9 cm and 6.9 ± 2.1 cm; the “Concentration AUC” value stood at 1371 ± 343; the Mood is 7.1 ± 1.1 cm and 7.4 ± 1.2 cm and 7.7 ± 1.0 cm and 7.8 ± 1.2 cm; the “Mood AUC” value was 1558 ± 215. In data set [1] (in vivo, po), the “Perform Tasks” value is 6.8 ± 1.6 cm and 7.1 ± 1.3 cm and 6.9 ± 1.7 cm and 7.1 ± 1.5 cm; the “Perform Tasks AUC” value was 1452 ± 297; the “Stressed and Anxious” value is 2.3 ± 1.5 cm and 2.3 ± 1.6 cm and 2.1 ± 1.8 cm and 2.0 ± 1.8 cm; the “Stressed and Anxious AUC” value was 466 ± 339. Besides, in data set [1] (in vivo, po), the Well-being was 7.2 ± 1.2 cm and 7.3 ± 1.2 cm and 7.5 ± 1.1 cm and 7.6 ± 1.3 cm; the “Well-being AUC” value was 1543 ± 242. For the same molecule, the “Perform Tasks” value in data set [1] (setting [6]) is on record as 6.5 ± 1.4^£ # cm. In addition, in data set [2], the “Tmax comparison between treatments” value is “significantly less than TB”, the “AUC0-210 comparison between treatments” value was “significantly greater than TB” and the “Cmax comparison between treatments” value was “significantly greater than TB”.
With L-arginine butyrate, the “Appearance after exposure to air” value in data set [3] (24 hours at room temperature) is recorded as “formed hard, rock-like clumps”; in data set [3] (setting [7]) it was “significantly hydrated into, large solid masses”. Further, the Hygroscopicity result in data set [3] is reported as “quite hygroscopic”.
Turning to `CCCC(=O)O` [L-Lysine Butyrate, L-lysine butyrate], the “Appearance after exposure to air” value in data set [3] (24 hours at room temperature) is given as “remained a fine, free-flowing yellow powder”. Also, the Hygroscopicity result in data set [3] is “not hygroscopic”. In addition, the “Appearance after exposure to air” value in data set [3] (setting [7]) was “remained a fine, free-flowing powder with no color change”. Also, the “Appearance after exposure to air” value in data set [3] (thirty (30) days at room temperature) is listed as “remained a fine, free-flowing powder”. In addition, the “Dose dependence of observed effects” value in data set [4] (500 mg to 5,000 mg as aqueous solution) is given as “dose-dependent”. Besides, in data set [4] (setting [8]), the “Effects reported by participants” value was “more relaxed, less tired, more sociable, and able to concentrate on tasks more effectively”; the “Time to reported effects after administration” value is “thirty”. The Duration of effects result in data set [4] (500 mg to 5,000 mg as aqueous solution, larger doses) is recorded as “up to four”. Also, in data set [4] (2 g oral, encapsulated form, two of the individuals), the Analgesic effect entry is “analgesic effect, eliminating minor-to-moderate pain and discomfort”. Also, the Mental effects result in data set [4] (single oral administration of 2 g, encapsulated form) was “pleasant mental effects, including an improvement in focus, alertness, concentration, reduction in anxiety, and a general feeling of well-being”. Moreover, the Mental effects entry in data set [4] (single oral administration of 5 g, encapsulated form) was “undesirable mental effects, interfering with focus and alertness, with effects similar to intoxication”. In addition, in data set [1] (setting [5]), the Alertness is listed as 6.9 ± 1.5^€; the “Calm and Relaxed” value is 7.5 ± 0.8^# cm; the Concentration was found to be 7.1 ± 1.3 cm; the Mood was found to be 7.7 ± 0.9 cm. Also, in data set [1] (setting [5]), the “Stressed and Anxious” value came out at 2.0 ± 1.4 cm; the Well-being is on record as 7.3 ± 0.9 cm. In addition, in data set [1] (in vivo, po), the Alertness was 7.2 ± 1.3 and 7.4 ± 1.2 and 7.5 ± 1.2 and 7.5 ± 1.1; the “Alertness AUC” value is reported as 1544 ± 249; the “Calm and Relaxed” value is 7.7 ± 0.9^# cm and 7.6 ± 1.2 cm and 7.6 ± 1.1^# cm and 8.0 ± 0.9 cm; the “Calm and Relaxed AUC” value amounted to 1612 ± 207. Also, in data set [1] (in vivo, po), the Concentration is 7.1 ± 1.4 cm and 7.5 ± 1.3^β cm and 7.4 ± 1.1 cm and 7.3 ± 1.6 cm; the “Concentration AUC” value was found to be 1532 ± 241; the Mood was 7.9 ± 0.7 cm and 7.6 ± 1.1 cm and 8.0 ± 0.7 cm and 8.0 ± 0.8 cm; the “Mood AUC” value came to 1651 ± 171. Also, in data set [1] (in vivo, po), the “Perform Tasks” value was 7.1 ± 1.3 cm and 7.4 ± 1.1 cm and 7.6 ± 1.3 cm; the “Perform Tasks AUC” value is reported as 1547 ± 262; the “Stressed and Anxious” value was 2.1 ± 1.6 cm and 2.3 ± 1.7 cm and 1.8 ± 1.3 cm and 2.0 ± 1.3 cm; the “Stressed and Anxious AUC” value was 431 ± 288. In addition, in data set [1] (in vivo, po), the Well-being was 7.6 ± 0.9^# cm and 7.6 ± 1.1 cm and 7.7 ± 1.0^# cm and 8.0 ± 0.9 cm; the “Well-being AUC” value worked out at 1610 ± 195. Also, the “Perform Tasks” value in data set [1] (setting [6]) came to 6.9 ± 1.7 cm. The “Serum Butyrate” value in data set [2] (0 min (baseline, prior to ingestion)) is 0.32 ± 0.43 µg/mL. Besides, the “Serum Butyrate” value in data set [2] (20 min post ingestion, oral, 3 capsules delivering 786 mg of butyric acid) is on record as 4.53 ± 7.56 µg/mL. Further, the “Serum Butyrate” value in data set [2] (45 min post ingestion, oral, 3 capsules delivering 786 mg of butyric acid) is 0.77 ± 1.49 µg/mL. In addition, in data set [2] (90 min post ingestion, oral, 3 capsules delivering 786 mg of butyric acid), the “Serum Butyrate” value is reported as 0.39 ± 0.62 µg/mL. In addition, the “Serum Butyrate” value in data set [2] (150 min post ingestion, oral, 3 capsules delivering 786 mg of butyric acid) is on record as 0.43 ± 0.64 µg/mL. For the same molecule, the “Serum Butyrate” value in data set [2] (210 min post ingestion, oral, 3 capsules delivering 786 mg of butyric acid) came to 0.37 ± 0.55 µg/mL. Further, in data set [2] (listed as LysB), the “Tmax comparison between treatments” value is “did not differ from NaB; also recorded: significantly less than TB”, the “AUC0-210 comparison between treatments” value is “did not differ from NaB; also recorded: significantly greater than TB” and the “Cmax comparison between treatments” value is “did not differ from NaB; also recorded: significantly greater than TB”.
